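Cultured in 96-well plates, cells were exposed to test compound for 48 hours across five concentrations. Here, GI50 denotes the concentration required for 50% inhibition of growth. TGI: total growth inhibition.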
Key:
Assay in all cases: NCI anticancer screen, dose series, 48 h
786-0 renal = tested on: 786-0 renal
A498 renal = tested on: A498 renal
A549 NSCLC = tested on: A549 NSCLC
ACHN renal = tested on: ACHN renal
BT-549 breast = tested on: BT-549 breast
CAKI-1 renal = tested on: CAKI-1 renal
CCRF-CEM leukemia = tested on: CCRF-CEM leukemia
COLO 205 colon = tested on: COLO 205 colon
DMS 114 small cell lung = tested on: DMS 114 small cell lung
DMS 273 small cell lung = tested on: DMS 273 small cell lung
DU-145 prostate = tested on: DU-145 prostate
EKVX NSCLC = tested on: EKVX NSCLC
HCC-2998 colon = tested on: HCC-2998 colon
HCT-116 colon = tested on: HCT-116 colon
HCT-15 colon = tested on: HCT-15 colon
HL-60(TB) leukemia = tested on: HL-60(TB) leukemia
HOP-62 NSCLC = tested on: HOP-62 NSCLC
HOP-92 NSCLC = tested on: HOP-92 NSCLC
HS 578T breast = tested on: HS 578T breast
HT29 colon = tested on: HT29 colon
IGROV1 ovarian = tested on: IGROV1 ovarian
K-562 leukemia = tested on: K-562 leukemia
KM12 colon = tested on: KM12 colon
LOX IMVI melanoma = tested on: LOX IMVI melanoma
LXFL 529 NSCLC = tested on: LXFL 529 NSCLC
M14 melanoma = tested on: M14 melanoma
M19-MEL melanoma = tested on: M19-MEL melanoma
MALME-3M melanoma = tested on: MALME-3M melanoma
MCF7 breast = tested on: MCF7 breast
MDA-MB-231 breast = tested on: MDA-MB-231 breast
MDA-MB-435 = tested on: MDA-MB-435
MOLT-4 leukemia = tested on: MOLT-4 leukemia
NCI-H226 lung = tested on: NCI-H226 lung
NCI-H23 lung = tested on: NCI-H23 lung
NCI-H460 lung = tested on: NCI-H460 lung
NCI-H522 lung = tested on: NCI-H522 lung
NCI/ADR-RES ovarian = tested on: NCI/ADR-RES ovarian
OVCAR-3 ovarian = tested on: OVCAR-3 ovarian
OVCAR-4 ovarian = tested on: OVCAR-4 ovarian
OVCAR-5 ovarian = tested on: OVCAR-5 ovarian
OVCAR-8 ovarian = tested on: OVCAR-8 ovarian
PC-3 prostate = tested on: PC-3 prostate
RPMI-8226 leukemia = tested on: RPMI-8226 leukemia
RXF 393 renal = tested on: RXF 393 renal
RXF-631 renal = tested on: RXF-631 renal
SF-268 CNS = tested on: SF-268 CNS
SF-295 CNS = tested on: SF-295 CNS
SF-539 CNS = tested on: SF-539 CNS
SK-MEL-2 melanoma = tested on: SK-MEL-2 melanoma
SK-MEL-28 melanoma = tested on: SK-MEL-28 melanoma
SK-MEL-5 melanoma = tested on: SK-MEL-5 melanoma
SK-OV-3 ovarian = tested on: SK-OV-3 ovarian
SN12C renal = tested on: SN12C renal
SNB-19 CNS = tested on: SNB-19 CNS
SNB-75 CNS = tested on: SNB-75 CNS
SNB-78 CNS = tested on: SNB-78 CNS
SR leukemia = tested on: SR leukemia
SW-620 colon = tested on: SW-620 colon
T-47D breast = tested on: T-47D breast
TK-10 renal = tested on: TK-10 renal
U251 CNS = tested on: U251 CNS
UACC-257 melanoma = tested on: UACC-257 melanoma
UACC-62 melanoma = tested on: UACC-62 melanoma
UO-31 renal = tested on: UO-31 renal
XF 498 CNS = tested on: XF 498 CNS
DLD-1 colon = tested on: DLD-1 colon

Compound Nc1n[n+](=O)c2ccccc2n1O has a TGI (786-0 renal) greater than 100 µM, a GI50 (A498 renal) of 11.9 µM and a TGI (A498 renal) greater than 100 µM. The TGI (A549 NSCLC) was greater than 100 µM, the TGI (ACHN renal) was greater than 100 µM and the GI50 (BT-549 breast) was 19.3 µM. It also gave a TGI (BT-549 breast) greater than 100 µM, a TGI (CAKI-1 renal) greater than 100 µM and a TGI (CCRF-CEM leukemia) greater than 100 µM. For the same compound, the TGI (COLO 205 colon) was greater than 100 µM, the TGI (DMS 114 small cell lung) was greater than 100 µM and the TGI (DMS 273 small cell lung) was greater than 100 µM. For the same compound, the GI50 (DU-145 prostate) was 69.1 µM, the TGI (DU-145 prostate) was greater than 100 µM and the TGI (EKVX NSCLC) was greater than 100 µM. It also gave a GI50 (HCC-2998 colon) of 50.7 µM, a TGI (HCC-2998 colon) greater than 100 µM and a GI50 (HCT-116 colon) of 62.9 µM. For the same compound, the TGI (HCT-116 colon) was greater than 100 µM, the TGI (HCT-15 colon) was greater than 100 µM and the TGI (HL-60(TB) leukemia) was greater than 100 µM. For the same compound, the TGI (HOP-62 NSCLC) was greater than 100 µM, the TGI (HOP-92 NSCLC) was greater than 100 µM and the GI50 (HS 578T breast) was greater than 100 µM. The TGI (HS 578T breast) was greater than 100 µM, the TGI (HT29 colon) was greater than 100 µM and the TGI (IGROV1 ovarian) was greater than 100 µM. The TGI (K-562 leukemia) was greater than 100 µM, the TGI (KM12 colon) was greater than 100 µM and the TGI (LOX IMVI melanoma) was greater than 100 µM. The TGI (LXFL 529 NSCLC) was greater than 100 µM, the TGI (M14 melanoma) was greater than 100 µM and the TGI (M19-MEL melanoma) was greater than 100 µM. It also gave a TGI (MALME-3M melanoma) greater than 100 µM, a GI50 (MCF7 breast) of 60.5 µM and a TGI (MCF7 breast) greater than 100 µM. It also gave a GI50 (MDA-MB-231 breast) greater than 100 µM, a TGI (MDA-MB-231 breast) greater than 100 µM and a GI50 (MDA-MB-435) greater than 100 µM. For the same compound, the TGI (MDA-MB-435) was greater than 100 µM, the TGI (MOLT-4 leukemia) was greater than 100 µM and the TGI (NCI-H226 lung) was greater than 100 µM. It also gave a GI50 (NCI-H23 lung) of 29.6 µM, a TGI (NCI-H23 lung) greater than 100 µM and a TGI (NCI-H460 lung) greater than 100 µM. The TGI (NCI-H522 lung) was greater than 100 µM, the GI50 (NCI/ADR-RES ovarian) was 55.2 µM and the TGI (NCI/ADR-RES ovarian) was greater than 100 µM. It also gave a TGI (OVCAR-3 ovarian) greater than 100 µM, a TGI (OVCAR-4 ovarian) greater than 100 µM and a TGI (OVCAR-5 ovarian) greater than 100 µM. For the same compound, the TGI (OVCAR-8 ovarian) was greater than 100 µM, the GI50 (PC-3 prostate) was 94.3 µM and the TGI (PC-3 prostate) was greater than 100 µM. The TGI (RPMI-8226 leukemia) was greater than 100 µM, the TGI (RXF 393 renal) was greater than 100 µM and the TGI (RXF-631 renal) was greater than 100 µM. It also gave a TGI (SF-268 CNS) greater than 100 µM, a TGI (SF-295 CNS) greater than 100 µM and a TGI (SF-539 CNS) greater than 100 µM. It also gave a TGI (SK-MEL-2 melanoma) greater than 100 µM, a TGI (SK-MEL-28 melanoma) greater than 100 µM and a TGI (SK-MEL-5 melanoma) greater than 65.7 µM. It also gave a TGI (SK-OV-3 ovarian) greater than 100 µM, a TGI (SN12C renal) greater than 100 µM and a TGI (SNB-19 CNS) greater than 100 µM. The TGI (SNB-75 CNS) was greater than 100 µM, the TGI (SNB-78 CNS) was greater than 100 µM and the GI50 (SR leukemia) was 20.6 µM. The TGI (SR leukemia) was greater than 100 µM, the TGI (SW-620 colon) was greater than 100 µM and the GI50 (T-47D breast) was 38.4 µM. For the same compound, the TGI (T-47D breast) was greater than 100 µM, the TGI (TK-10 renal) was greater than 100 µM and the TGI (U251 CNS) was greater than 100 µM. It also gave a TGI (UACC-257 melanoma) greater than 100 µM, a TGI (UACC-62 melanoma) greater than 100 µM and a TGI (UO-31 renal) greater than 100 µM. It also gave a TGI (XF 498 CNS) greater than 100 µM.

With CC1NS(=O)(=O)N(C)C1=O (stereo not drawn) the TGI (A549 NSCLC) was greater than 100 µM, the TGI (ACHN renal) was greater than 100 µM and the TGI (CAKI-1 renal) was greater than 100 µM. The TGI (CCRF-CEM leukemia) was greater than 100 µM, the TGI (DLD-1 colon) was greater than 100 µM and the TGI (DMS 114 small cell lung) was greater than 100 µM. It also gave a TGI (DMS 273 small cell lung) greater than 100 µM, a TGI (HCC-2998 colon) greater than 100 µM and a TGI (HCT-116 colon) greater than 100 µM. For the same compound, the TGI (HCT-15 colon) was greater than 100 µM, the TGI (HL-60(TB) leukemia) was greater than 100 µM and the TGI (HOP-62 NSCLC) was greater than 100 µM. The TGI (HOP-92 NSCLC) was greater than 100 µM, the TGI (IGROV1 ovarian) was greater than 100 µM and the TGI (K-562 leukemia) was greater than 100 µM. For the same compound, the TGI (KM12 colon) was greater than 100 µM, the TGI (LOX IMVI melanoma) was greater than 100 µM and the TGI (LXFL 529 NSCLC) was greater than 100 µM. It also gave a TGI (M14 melanoma) greater than 100 µM, a TGI (M19-MEL melanoma) greater than 100 µM and a TGI (MALME-3M melanoma) greater than 100 µM. The TGI (MOLT-4 leukemia) was greater than 100 µM, the TGI (NCI-H226 lung) was greater than 100 µM and the TGI (NCI-H23 lung) was greater than 100 µM. The TGI (NCI-H522 lung) was greater than 100 µM, the TGI (OVCAR-3 ovarian) was greater than 100 µM and the TGI (OVCAR-4 ovarian) was greater than 100 µM. The TGI (OVCAR-5 ovarian) was greater than 100 µM, the TGI (OVCAR-8 ovarian) was greater than 100 µM and the TGI (RPMI-8226 leukemia) was greater than 100 µM. The TGI (RXF 393 renal) was greater than 100 µM, the TGI (RXF-631 renal) was greater than 100 µM and the TGI (SF-268 CNS) was greater than 100 µM. It also gave a TGI (SF-295 CNS) greater than 100 µM, a TGI (SF-539 CNS) greater than 100 µM and a TGI (SK-MEL-2 melanoma) greater than 100 µM. For the same compound, the TGI (SK-MEL-28 melanoma) was greater than 100 µM, the TGI (SK-MEL-5 melanoma) was greater than 100 µM and the TGI (SK-OV-3 ovarian) was greater than 100 µM. For the same compound, the TGI (SN12C renal) was greater than 100 µM, the TGI (SNB-75 CNS) was greater than 100 µM and the TGI (SNB-78 CNS) was greater than 100 µM. The TGI (SR leukemia) was greater than 100 µM, the TGI (SW-620 colon) was greater than 100 µM and the TGI (TK-10 renal) was greater than 100 µM. The TGI (U251 CNS) was greater than 100 µM, the TGI (UACC-257 melanoma) was greater than 100 µM and the TGI (UACC-62 melanoma) was greater than 100 µM. For the same compound, the TGI (XF 498 CNS) was greater than 100 µM.

Reference: PubChem BioAssay (NCI)
